These results are taken from patent publication US7799775B2, “Pyrimidine derivatives” (ASKA Pharmaceutical Co., Ltd., priority 2004, dated 2010).

The test system of test [1] is rats under restraint stress. Kind of test: Measurement of defecation acceleration in rats under restraint stress. It is filed as in vivo, rat. As to conditions: 1 hour restraint stress, group average (Normal 1.7, Control 6.8). Here is the method: (5) Measurement of Defecation Acceleration in Rats under Restraint Stress […] Feed and drinking water were left for their free ingestion until the morning of the day on which the test was given. On the day of the experiment, test compounds were orally administered and positive control solution (the used compounds were dissolved in 1N-hydrochloric acid and diluted with a suitable amount of saline) was administered intraperitoneally. Five (5) minutes thereafter, under lightly anesthetized condition, the rats were placed under restraint stress, with their upper half of the bodies including the front feet immobilized with gum tape. The restraint stress loading was conducted for an hour, and the number of excrements discharged during that period was counted. […] Those compounds which were used as the positive control chemicals used in the acceleration of defecation in rats under restraint stress are identified with the following structures.

The target in another test is T1, 5-HT3 receptor (Rattus norvegicus, UniProt P35563).
T1 construct: from tissue; host or cells: whole animal (SD male rats), serotonin-induced bradycardia
T1 sequence (P35563 24-483): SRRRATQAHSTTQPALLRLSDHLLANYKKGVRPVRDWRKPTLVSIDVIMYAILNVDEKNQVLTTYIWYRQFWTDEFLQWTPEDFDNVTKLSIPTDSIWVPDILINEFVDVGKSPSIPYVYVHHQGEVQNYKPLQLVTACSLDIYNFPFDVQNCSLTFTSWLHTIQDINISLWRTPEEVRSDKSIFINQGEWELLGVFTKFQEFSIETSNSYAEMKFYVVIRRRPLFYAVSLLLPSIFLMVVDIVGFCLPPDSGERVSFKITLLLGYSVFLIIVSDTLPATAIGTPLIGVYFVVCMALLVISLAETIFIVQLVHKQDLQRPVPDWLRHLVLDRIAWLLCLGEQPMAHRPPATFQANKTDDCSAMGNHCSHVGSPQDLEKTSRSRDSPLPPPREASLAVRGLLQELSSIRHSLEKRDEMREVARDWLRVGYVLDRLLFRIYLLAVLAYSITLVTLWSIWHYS
Put plainly: Measurement of 5-HT3 receptor antagonistic action on rats (in vivo): inhibition of serotonin-induced bradycardia (BJ reflex). As to conditions: anesthetized SD male rats, serotonin 300 μg/kg 10 minutes later. As for the experimental part:
(4) Measurement of 5-HT3 Receptor Antagonistic Action on Rats (in Vivo)
SD male rats (weighing 270-410 g) were anesthetized by peritoneal administration of 1.25 g/kg of urethane (as dissolved in distilled water), and then catheters for measuring blood pressure and heart rate were inserted into their left carotid artery and a catheter for administration of test compound was inserted into their […]. After their blood pressure and heart rate were stabilized, 300 μg/kg of 5-hydroxytryptamine creatinine sulfate (serotonin) was rapidly intravenously administered and thereby induced transient bradycardiac reaction (BC 1) was observed. When the blood pressure and heart rate were re-stabilized after the serotonic administration, the test compounds were intravenously administered to the rats. Ten minutes thereafter, 300 μg/kg of serotonin was once again rapidly intravenously administered and thereby induced transient bradycardiac reaction (BC 2) was observed. Percent inhibition of bradycardia manifestation of each test compound, i.e., BJ reflex inhibition, can be calculated according to the following expression: […]

For `Nn1c(CCCCN2CCN(c3ccc4ccccc4n3)CC2)nc2c(c1=O)CCCC2` [Example 4-1, 3-amino-2-[4-(4-quinolin-2-ylpiperazin-1-yl)butyl]-5,6,7,8-tetrahydro-3H-quinazolin-4-one], the Number of excrements is listed as 5.3 in test [1] (0.3 mg/kg intraperitoneal administration), 4.3 in test [1] (1 mg/kg intraperitoneal administration) and 2.1 in test [1] (3 mg/kg intraperitoneal administration). The “BC Inhibition (%)” value at 5-HT3 receptor (dose 0.1 mg/kg intravenous) was determined as 70.4%.

As to `Nn1c(CCCCN2CCN(c3ccc4ccccc4n3)CC2)nc2ccccc2c1=O` [Example 4-3, 3-amino-2-[4-(4-quinolin-2-ylpiperazin-1-yl)butyl]-3H-quinazolin-4-one], the “BC Inhibition (%)” value at 5-HT3 receptor (dose 1.0 mg/kg intravenous) is listed as 90.1%.

With `Cc1cc(N2CCN(CCCCc3nc4ccccc4c(=O)n3N)CC2)nc2ccccc12` [Example 4-4, 3-amino-2-[4-[4-(4-methylquinolin-2-yl)piperazin-1-yl]butyl]-3H-quinazolin-4-one], on 5-HT3 receptor (dose 0.1 mg/kg intravenous), the “BC Inhibition (%)” value was determined as 68.7%.

Take `Nn1c(CCCCN2CCN(c3ccc4ccccc4n3)CC2)nc2ccsc2c1=O` [Example 4-18, 3-amino-2-[4-(4-quinolin-2-ylpiperazin-1-yl)butyl]-3H-thieno[3,2-d]-pyrimidin-4-one]: the “BC Inhibition (%)” value at 5-HT3 receptor (dose 0.1 mg/kg intravenous) is reported as 35.6%.

Turning to `Nn1c(CCCCN2CCN(c3ccc4ccccc4n3)CC2)nc2cccc(Cl)c2c1=O` [Example 4-25, 3-amino-5-chloro-2-[4-(4-quinolin-2-ylpiperazin-1-yl)butyl]-3H-quinazolin-4-one], the “BC Inhibition (%)” value at 5-HT3 receptor (dose 0.1 mg/kg intravenous) came to 49.1%.

On to `Cn1c(CCCCN2CCN(c3ccc4ccccc4n3)CC2)nc2c(c1=O)CCCC2` [Example 7-1, 3-methyl-2-[4-(4-quinolin-2-ylpiperazin-1-yl)butyl]-5,6,7,8-tetrahydro-3H-quinazolin-4-one], for which the Number of excrements is on record as 5.8 in test [1] (1 mg/kg oral administration), 3.8 in test [1] (3 mg/kg oral administration) and 2.3 in test [1] (10 mg/kg oral administration). Also, the “BC Inhibition (%)” value at 5-HT3 receptor (dose 0.1 mg/kg intravenous) was 90.3%.

In the case of `Cc1cc(N2CCN(CCCCc3nc4c(c(=O)n3C)CCCC4)CC2)nc2ccccc12` [Example 7-6, 3-methyl-2-[4-[4-(4-methylquinolin-2-yl)piperazin-1-yl]butyl]-5,6,7,8-tetrahydro-3H-quinazolin-4-one], the Number of excrements came out at 5.4 in test [1] (1 mg/kg oral administration), 4.0 in test [1] (3 mg/kg oral administration) and 2.9 in test [1] (10 mg/kg oral administration). Further, the “BC Inhibition (%)” value at 5-HT3 receptor (dose 0.01 mg/kg intravenous) was found to be 58.5%.

As for `CCn1c(CCCCN2CCN(c3cc(C)c4ccccc4n3)CC2)nc2c(c1=O)CCCC2` [Example 7-7, 3-ethyl-2-[4-[4-(4-methylquinolin-2-yl)piperazin-1-yl]butyl]-5,6,7,8-tetrahydro-3H-quinazolin-4-one], the “BC Inhibition (%)” value on 5-HT3 receptor (dose 1.0 mg/kg intravenous) turned out to be 85.4%.

On to `Cn1c(CCCCN2CCN(c3ccc4ccccc4n3)CC2)nc2ccccc2c1=O` [Example 7-20, 3-methyl-2-[4-(4-quinolin-2-ylpiperazin-1-yl)butyl]-3H-quinazolin-4-one], for which the results for the Number of excrements in test [1] (1 mg/kg oral administration), in test [1] (3 mg/kg oral administration) and in test [1] (10 mg/kg oral administration) were 5.4, 3.6 and 2.4, respectively. Besides, the “BC Inhibition (%)” value at 5-HT3 receptor (dose 0.01 mg/kg intravenous) stood at 64.7%.

Consider `COc1ccc2ccnc(N3CCNC(C)C3)c2c1` (centres unmarked) [Production Example 38, 7-methoxy-1-(3-methylpiperazin-1-yl)isoquinoline], for which the “BC Inhibition (%)” value on 5-HT3 receptor (dose 1.0 mg/kg intravenous) stood at 82.9%.

Consider `Cc1ccc2ccnc(N3CCN(C)CC3)c2c1` [Production Example 47, 7-methyl-1-(4-methylpiperazin-1-yl)isoquinoline], for which the “BC Inhibition (%)” value on 5-HT3 receptor (dose 1.0 mg/kg intravenous) was 89.9%.

As to `Clc1ccc2ccnc(N3CCNCC3)c2c1` [Production Example 49, 7-chloro-1-piperazin-1-ylisoquinoline], the “BC Inhibition (%)” value at 5-HT3 receptor (dose 1.0 mg/kg intravenous) amounted to 96.8%.

As for `COc1ccc2ccnc(N3CCN4CCC[C@H]4C3)c2c1` [Production Example 72, 1-((8aS)-octahydropyrrolo[1,2-a]pyrazin-2-yl)-7-methoxyisoquinoline], the “BC Inhibition (%)” value at 5-HT3 receptor (dose 0.3 mg/kg intravenous) came to 72.5%.

`Clc1ccc2ccnc(N3CCN4CCC[C@H]4C3)c2c1` [Production Example 73, 7-chloro-1-((8aS)-octahydropyrrolo[1,2-a]pyrazin-2-yl)isoquinoline]: at 5-HT3 receptor (dose 0.01 mg/kg intravenous), the “BC Inhibition (%)” value is 52.2%.

`c1cc2ccoc2c(N2CCN3CCC[C@H]3C2)n1` [Production Example 102, 7-((8aS)-octahydropyrrolo[1,2-a]pyrazin-2-yl)furo[2,3-c]-pyridine]: the “BC Inhibition (%)” value on 5-HT3 receptor (dose 3.0 mg/kg intravenous) was 61.5%.

Regarding `c1cc2ccsc2c(N2CCN3CCC[C@H]3C2)n1` [Production Example 103, 7-((8aS)-octahydropyrrolo[1,2-a]pyrazin-2-yl)thieno[2,3-c]pyridine], the “BC Inhibition (%)” value at 5-HT3 receptor (dose 3.0 mg/kg intravenous) is 57.6%.

On to `c1cc2sccc2c(N2CCN3CCC[C@H]3C2)n1` [Production Example 104, 4-((8aS)-octahydropyrrolo[1,2-a]pyrazin-2-yl)thieno[3,2-c]pyridine], for which the “BC Inhibition (%)” value at 5-HT3 receptor (dose 10.0 mg/kg intravenous) was 46.1%.
